Bridge positions count the residues as written; N and C are the ends. Square brackets hold non-standard residues; d marks the D form. Peptide text beside a SMILES is read from it. * marks the point of attachment. Phe(4-COOH) = N[C@@H](Cc1ccc(C(=O)O)cc1)C(=O)O; Bip = N[C@@H](Cc1ccc(-c2ccccc2)cc1)C(=O)O; Phe(3-CN) = N#Cc1cccc(C[C@H](N)C(=O)O)c1; Phe(3-Cl) = N[C@@H](Cc1cccc(Cl)c1)C(=O)O; Phe(3-OMe) = COc1cccc(C[C@H](N)C(=O)O)c1; Phe(4-CN) = N#Cc1ccc(C[C@H](N)C(=O)O)cc1; Phe(2-F) = N[C@@H](Cc1ccccc1F)C(=O)O; 4Pal = N[C@@H](Cc1ccncc1)C(=O)O; Cit = NC(=O)NCCC[C@H](N)C(=O)O; Carboxymethyl = O=C(O)C*; NMeA = CN[C@@H](C)C(=O)O; Dab = NCC[C@H](N)C(=O)O; Dap = NC[C@H](N)C(=O)O
Target: T1, PE-labeled human PD-L1-Ig binding to Jurkat cell line over-expressing human PD-1 (Jurkat-PD-1) (Homo sapiens, UniProt Q15116)
T1 construct: expressed in transfected cells; host or cells: Jurkat
Test: Jurkat-PD-1 Cell Binding High-Content Screening Assay (CBA): Method 1
Details: Jurkat-hPD-1 cells, PE-labeled PD-L1-Ig 20 nM final; read-out: Jurkat HPDL1 PD1 IC50 (uM) (Method 1)

T1 sequence (Q15116 25-288): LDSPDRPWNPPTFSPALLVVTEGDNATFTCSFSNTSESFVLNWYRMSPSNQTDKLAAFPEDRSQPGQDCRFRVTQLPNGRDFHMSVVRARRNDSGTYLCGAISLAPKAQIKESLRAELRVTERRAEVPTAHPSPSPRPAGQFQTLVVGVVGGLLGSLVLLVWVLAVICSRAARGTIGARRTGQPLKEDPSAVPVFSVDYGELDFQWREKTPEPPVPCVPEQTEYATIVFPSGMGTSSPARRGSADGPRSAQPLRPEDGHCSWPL

Row | IC50 | Structure (SMILES)
1 | 0.08 µM | CC(C)C[C@@H]1NC(=O)[C@H](CCN)NC(=O)[C@@H](CC(C)C)NC(=O)[C@H](C)N(C)C(=O)[C@H](CCCNC(=N)N)NC(=O)[C@H](Cc2ccc(-c3ccccc3)cc2)NC(=O)[C@H](C(C)C)NC(=O)[C@H](Cc2c[nH]c3ccccc23)NC(=O)[C@H](CC(=O)O)NC(=O)[C@H](Cc2ccc(C#N)cc2)NC(=O)[C@H](CN)NC(=O)CSC[C@@H](C(=O)N[C@@H](C)C(N)=O)NC(=O)[C@H]([C@@H](C)O)NC(=O)[C@H](C(C)C)NC1=O [Compound 1444] ({CH2CO}-[Dap][Phe(4-CN)]DWV[Bip]R[NMeA][dL][Dab]LVTCA-NH2; thioether N-14)
2 | 0.11 µM | CC(C)C[C@@H]1NC(=O)[C@H](CCN)NC(=O)[C@@H](CC(C)C)NC(=O)[C@H](C)N(C)C(=O)[C@H](CCCNC(=N)N)NC(=O)[C@H](Cc2ccc(-c3ccccc3)cc2)NC(=O)[C@H](C(C)C)NC(=O)[C@H](Cc2c[nH]c3ccccc23)NC(=O)[C@H](CC(=O)O)NC(=O)[C@H](Cc2cccc(Cl)c2)NC(=O)[C@H](CN)NC(=O)CSC[C@@H](C(=O)N[C@@H](C)C(N)=O)NC(=O)[C@H]([C@@H](C)O)NC(=O)[C@H](C(C)C)NC1=O [Compound 1445] ({CH2CO}-[Dap][Phe(3-Cl)]DWV[Bip]R[NMeA][dL][Dab]LVTCA-NH2; thioether N-14)
3 | 0.08 µM | CC(C)C[C@@H]1NC(=O)[C@H](CCN)NC(=O)[C@@H](CC(C)C)NC(=O)[C@H](C)N(C)C(=O)[C@H](CCCNC(=N)N)NC(=O)[C@H](Cc2ccc(-c3ccccc3)cc2)NC(=O)[C@H](C(C)C)NC(=O)[C@H](Cc2c[nH]c3ccccc23)NC(=O)[C@H](CC(=O)O)NC(=O)[C@H](Cc2ccc(C#N)cc2)NC(=O)[C@H](Cc2ccncc2)NC(=O)CSC[C@@H](C(=O)N[C@@H](C)C(N)=O)NC(=O)[C@H]([C@@H](C)O)NC(=O)[C@H](C(C)C)NC1=O [Compound 1446] ({CH2CO}-[4Pal][Phe(4-CN)]DWV[Bip]R[NMeA][dL][Dab]LVTCA-NH2; thioether N-14)
4 | 0.03 µM | CC(C)C[C@@H]1NC(=O)[C@H](CCN)NC(=O)[C@@H](CC(C)C)NC(=O)[C@H](C)N(C)C(=O)[C@H](C(C)C)NC(=O)[C@H](Cc2ccc(-c3ccccc3)cc2)NC(=O)[C@H](C(C)C)NC(=O)[C@H](Cc2c[nH]c3ccccc23)NC(=O)[C@H](CC(=O)O)NC(=O)[C@H](Cc2ccc(OCC(=O)O)cc2)NC(=O)[C@H](CN)NC(=O)CSC[C@@H](C(=O)N[C@@H](C)C(N)=O)NC(=O)[C@H]([C@@H](C)O)NC(=O)[C@H](C(C)C)NC1=O [Compound 1447] ({CH2CO}-[Dap]Y(Carboxymethyl)DWV[Bip]V[NMeA][dL][Dab]LVTCA-NH2; thioether N-14)
5 | 0.06 µM | COc1cccc(C[C@@H]2NC(=O)[C@H](CC(=O)O)NC(=O)[C@H](Cc3ccc(OCC(=O)O)cc3)NC(=O)[C@H](CN)NC(=O)CSC[C@@H](C(=O)N[C@@H](C)C(N)=O)NC(=O)[C@H]([C@@H](C)O)NC(=O)[C@H](C(C)C)NC(=O)[C@H](CC(C)C)NC(=O)[C@H](CCN)NC(=O)[C@@H](CC(C)C)NC(=O)[C@H](C)N(C)C(=O)[C@H](CCCNC(N)=O)NC(=O)[C@H](Cc3ccc(-c4ccccc4)cc3)NC(=O)[C@H](C(C)C)NC2=O)c1 [Compound 1448] ({CH2CO}-[Dap]Y(Carboxymethyl)D[Phe(3-OMe)]V[Bip][Cit][NMeA][dL][Dab]LVTCA-NH2; thioether N-14)
6 | 0.17 µM | CC(C)C[C@@H]1NC(=O)[C@H](CCN)NC(=O)[C@@H](CC(C)C)NC(=O)[C@H](C)N(C)C(=O)[C@H](CCCNC(=N)N)NC(=O)[C@H](Cc2ccc(-c3ccccc3)cc2)NC(=O)[C@H](C(C)C)NC(=O)[C@H](Cc2cccc(C#N)c2)NC(=O)[C@H](CC(=O)O)NC(=O)[C@H](Cc2ccc(OCC(=O)O)cc2)NC(=O)[C@H](CN)NC(=O)CSC[C@@H](C(=O)N[C@@H](C)C(N)=O)NC(=O)[C@H]([C@@H](C)O)NC(=O)[C@H](C(C)C)NC1=O [Compound 1449] ({CH2CO}-[Dap]Y(Carboxymethyl)D[Phe(3-CN)]V[Bip]R[NMeA][dL][Dab]LVTCA-NH2; thioether N-14)
7 | 0.06 µM | CC(C)C[C@@H]1NC(=O)[C@H](CCN)NC(=O)[C@@H](CC(C)C)NC(=O)[C@H](C)N(C)C(=O)[C@H](CCCNC(=N)N)NC(=O)[C@H](Cc2ccc(-c3ccccc3)cc2)NC(=O)[C@H](C(C)C)NC(=O)[C@H](Cc2c[nH]c3ccccc23)NC(=O)[C@H](CC(=O)O)NC(=O)[C@H](Cc2ccc(OCC(=O)O)cc2)NC(=O)[C@H](CN)NC(=O)CSC[C@@H](C(=O)N[C@@H](C)C(N)=O)NC(=O)[C@H]([C@@H](C)O)NC(=O)[C@H](C(C)C)NC1=O [Compound 1450] ({CH2CO}-[Dap]Y(Carboxymethyl)DWV[Bip]R[NMeA][dL][Dab]LVTCA-NH2; thioether N-14)
8 | 0.08 µM | CC(C)C[C@@H]1NC(=O)[C@H](CCN)NC(=O)[C@@H](CC(C)C)NC(=O)[C@H](C)N(C)C(=O)[C@H](CCCNC(=N)N)NC(=O)[C@H](Cc2ccc(-c3ccccc3)cc2)NC(=O)[C@H](C(C)C)NC(=O)[C@H](Cc2c[nH]c3ccccc23)NC(=O)[C@H](CC(=O)O)NC(=O)[C@H](Cc2ccc(C(=O)O)cc2)NC(=O)[C@H](CN)NC(=O)CSC[C@@H](C(=O)N[C@@H](C)C(N)=O)NC(=O)[C@H]([C@@H](C)O)NC(=O)[C@H](C(C)C)NC1=O [Compound 1451] ({CH2CO}-[Dap][Phe(4-COOH)]DWV[Bip]R[NMeA][dL][Dab]LVTCA-NH2; thioether N-14)
9 | 0.04 µM | CC(C)C[C@@H]1NC(=O)[C@H](CCN)NC(=O)[C@@H](CC(C)C)NC(=O)[C@H](C)N(C)C(=O)[C@H](CCCNC(=N)N)NC(=O)[C@H](Cc2ccc(-c3ccccc3)cc2)NC(=O)[C@H](C(C)C)NC(=O)[C@H](Cc2c[nH]c3ccccc23)NC(=O)[C@H](CC(=O)O)NC(=O)[C@H](Cc2ccc(C(=O)O)cc2)NC(=O)[C@H](CC(N)=O)NC(=O)CSC[C@@H](C(=O)N[C@@H](C)C(N)=O)NC(=O)[C@H]([C@@H](C)O)NC(=O)[C@H](C(C)C)NC1=O [Compound 1452] ({CH2CO}-N[Phe(4-COOH)]DWV[Bip]R[NMeA][dL][Dab]LVTCA-NH2; thioether N-14)
10 | 0.08 µM | COc1cccc(C[C@@H]2NC(=O)[C@H](CN)NC(=O)CSC[C@@H](C(=O)N[C@@H](C)C(N)=O)NC(=O)[C@H]([C@@H](C)O)NC(=O)[C@H](C(C)C)NC(=O)[C@H](CC(C)C)NC(=O)[C@H](CCN)NC(=O)[C@@H](CC(C)C)NC(=O)[C@H](C)N(C)C(=O)[C@H](CCCNC(=N)N)NC(=O)[C@H](Cc3ccc(-c4ccccc4)cc3)NC(=O)[C@H](C(C)C)NC(=O)[C@H](Cc3c[nH]c4ccccc34)NC(=O)[C@H](CC(=O)O)NC2=O)c1 [Compound 1453] ({CH2CO}-[Dap][Phe(3-OMe)]DWV[Bip]R[NMeA][dL][Dab]LVTCA-NH2; thioether N-14)
11 | 0.02 µM | CC(C)C[C@@H]1NC(=O)[C@H](CCN)NC(=O)[C@@H](CC(C)C)NC(=O)[C@H](C)N(C)C(=O)[C@H](CCCNC(=N)N)NC(=O)[C@H](Cc2ccc(-c3ccccc3)cc2)NC(=O)[C@H](C(C)C)NC(=O)[C@H](Cc2c[nH]c3ccccc23)NC(=O)[C@H](CC(=O)O)NC(=O)[C@H](Cc2ccccc2F)NC(=O)[C@H](CN)NC(=O)CSC[C@@H](C(=O)N[C@@H](C)C(N)=O)NC(=O)[C@H]([C@@H](C)O)NC(=O)[C@H](C(C)C)NC1=O [Compound 1454] ({CH2CO}-[Dap][Phe(2-F)]DWV[Bip]R[NMeA][dL][Dab]LVTCA-NH2; thioether N-14)

Source: US20240409585A1, “MACROCYCLIC IMMUNOMODULATORS” (priority 2021, published 2024)
